Tests used:
[1] = tested on: human retinal pigmented epithelial cells (ARPE-19); assay: CCK-8 cell growth analysis in retinal pigmented epithelial cells; type: cell-based; details: young vs senescent retinal pigmented epithelial cells; concentration-dependent
Protocol: Each cell was treated in a serum-free culture solution containing 0.5 μM doxorubicin for 4 hours. After washing the cells with a serum-free culture solution, the cells were cultured for 4 days in a culture solution containing 10% FBS, and then cellular aging was confirmed by staining with senescence-associated beta galactosidase (SAβG). After each sample was dissolved in DMSO, young cells, replicative senescent cells, and premature senescent cells treated with doxorubicin were treated with 100 nM zotarolimus, 100 nM rapamycin, 100 nM ABT263, respectively. After incubation for 4 days in a 37° C., 5% CO2 incubator, the degree of cell growth was confirmed by CCK-8 analysis, the degree of cellular aging was confirmed by senescence-related beta-galactosidase (SAβG) staining, Young cells (1×10^3 cells/well) or senescent cells (2×10^3 cells/well) were dispensed into a 96-well plate, and cultured overnight in a 37° C., 5% CO2 incubator. Zotarolimus, ABT263 and rapamycin were treated at each concentration, and then incubated for 4 days in a 37° C., 5% CO2 incubator. […] Then, the absorbance was measured at 450 nm using a microplate reader. The degree of cell growth was expressed as a relative value for the absorbance of the control group treated with only DMSO as 100%. […]

[2] = tested on: renal fibrosis induced by renal ischemia-reperfusion injury; assay: Renal fibrosis induced by renal ischemia-reperfusion injury in mice; type: in vivo, C57BL/6J mice
Protocol: Animal experiments were performed with the approval of the Animal Experimental Ethics Committee, Yeungnam University College of Medicine (YUMC-AEC2018-024). C57BL/6J 8-week-old male mice were anesthetized by intraperitoneal injection of 2.5% Avertin (0.025 ml/g body weight).
The anesthetized mice were placed on a hot plate at 37° C. and the left flank was incised to expose the left kidney. The renal arteriovenous blood vessels were ligated with a microaneurism clamp (Roboz), and whether the blood vessels were blocked or not was confirmed by the color of the kidneys. During the induction of ischemia, the body temperature of the mice was maintained at 36.5-37.5° C. After 35 minutes, the clamp was removed and it was confirmed that reperfusion occurred.
As a control, renal arteriovenous vessels were not ligated, and the rest was performed in the same manner as above. From 4 days after ischemia-reperfusion injury, 2.5 μl of 10 mM zotarolimus was diluted in 100 μl of phosphate buffer solution at intervals of 2 days and injected into the abdominal cavity 3 times (Zota group). […] Three mice were used for each group.
The left kidney in which ischemia-reperfusion injury was induced, was excised in half and fixed in 10% formalin solution or stored frozen in liquid nitrogen. […]
To confirm the degree of lipid peroxidation in tissues, malondialdehyde (MDA) was confirmed by the TBARS method (Garcia Y J, et al., Journal of neuroscience methods. 2005).
Briefly, 1.4 ml of TBARS solution [0.375% thiobarbituric acid (TBA), 15% trichloroacetic acid (TCA), 0.25 N HCl] was added to the tissue pulverization solution (0.3 mg protein/0.1 ml), and boiled for 15 minutes at 95-100° C. and centrifugation was performed at 4° C. and 12,000 rpm for 10 minutes, and the absorbance of the supernatant was confirmed at 540 nm.
Lipid hydroperoxides were identified by ferrous ion oxidation xylenol orange (FOX) method (Jiang Z Y, et al., Lipids. 1991).
0.9 ml of FOX reagent (100 μM xylenol orange, 25 mM H2SO4, 0.1 M sorbitol, 2.5 mM ferrous ammonium sulfate] was reacted at room temperature for 30 minutes and then centrifuged to measure the absorbance of the supernatant at 570 nm. […]
RIPA buffer was added to the tissue and pulverized with WiseTis homogenizer HG-15D (DAIHAN Scientific, Seoul, South Korea). Centrifugation was performed at 12,000 rpm at 4° C. for 20 minutes, and the supernatant was transferred to a new tube.
The protein concentration of the supernatant was quantified by the BCA method. After electrophoresis (SDS-PAGE) of 30 μg of protein, Western blot analysis was performed. After electrophoresis, the protein was transferred from the gel to a polyvinylidene fluoride membrane (Pall Corporation).
The membrane was treated with a 5% Difco™ skim milk solution (Becton, Dickinson and Company, USA) for 2 hours at room temperature, and the primary antibody was added, followed by reaction at room temperature for 2 hours. As the primary antibody, anti-p53 antibody, anti-p16 antibody, anti-actin antibody, and anti-GAPDH antibody were purchased from Santa Cruz Biotechnology, Inc. Anti-phosphorylated-Rb antibody was obtained from New England Biolabs (Ipswich, Mass., USA), and the anti-SOD2 antibody and anti-catalase antibody were obtained from Bioworld Technology Inc. (Louis Park, Minn., USA), anti-4-HNE antibody, anti-α-smooth muscle actin antibody, and anti-type I collagen antibody were purchased from Abcam (Cambridge, UK).
The membrane treated with the primary antibody was washed three times for 15 minutes each with TBST (20 mM Tris-HCl (pH 8.0), 137 mM NaCl, 0.1% Tween 20), and reacted for 60 minutes by treatment with the secondary antibody.
After washing for at least 60 minutes with TBST, protein expression was confirmed using an ECL detection kit (Elpis Biotech, Daejeon, South Korea).
The tissue fixed in 10% formalin solution was embedded with paraffin and cut into 4 μm to prepare a tissue sample. […]

[3] = i.p. 3 times from day 4, vs PBS group

CO[C@H]1C[C@@H]2CC[C@@H](C)[C@@](O)(O2)C(=O)C(=O)N2CCCC[C@H]2C(=O)O[C@H]([C@H](C)C[C@@H]2CC[C@H](n3cnnn3)[C@H](OC)C2)CC(=O)[C@H](C)/C=C(\C)[C@@H](O)[C@@H](OC)C(=O)[C@H](C)C[C@H](C)/C=C/C=C/C=C/1C [zotarolimus]
cell growth with increasing concentrations of zotarolimus [1]: significantly decreased in senescent cells compared to young cells | weight gain ([2]; body weight before injury vs 11th day, i.p. 3 times at 2-day intervals, vs Sham group): significantly reduced compared to that of the Sham group | plasma BUN [2, 3]: decreased | plasma creatinine [2, 3]: decreased | expression of SOD2 ([2]; kidney tissue): increased | expression of catalase ([2]; kidney tissue): increased | superoxide ([2]; kidney tissue): significantly reduced | damage to the kidney tubules ([2]; kidney tissue specimen, vs PBS group): significantly reduced | degree of lipid oxidation (lipid hydroperoxides and MDA) ([2]; kidney tissue, vs PBS group): significantly reduced | degree of tissue fibrosis by trichrome staining ([2]; kidney tissue, vs PBS group): significantly reduced | expression level of 4-HNE (Western blot) ([2]; kidney tissue, vs PBS group): significantly reduced | expression level of p16 (Western blot) ([2]; kidney tissue, vs PBS group): significantly reduced | expression of p53 (Western blot) ([2]; kidney tissue, vs PBS group): significantly reduced | expression of pRb (Western blot) ([2]; kidney tissue, vs PBS group): significantly reduced | expression of type 1 collagen (COL1) (Western blot) ([2]; kidney tissue, vs PBS group): significantly reduced | expression of α-SMA (Western blot) ([2]; kidney tissue, vs PBS group): significantly reduced | lipofuscin staining intensity (Sudan Black B) ([2]; kidney tissue, vs PBS group): significantly reduced

From patent US20220023271A1, “COMPOSITION FOR PREVENTING OR TREATING CELLULAR SENESCENCE-RELATED DISEASES COMPRISING ZOTAROLIMUS AS ACTIVE INGREDIENT” (RESEARCH COOPERATION FOUNDATION OF YEUNGNAM UNIVERSITY, priority 2018, published 2022)
